In EP0397424A2, “Multiple analysis system” (Biotrack, Inc., priority 1989, dated 1990):

Test system: red cells
Assay: Red cell lysis by detergent-saturated polyethylene reagent pads (completeness of lysis, red cell fragments)
Assay type: cell-based
Set-up: key: + = complete lysis or absence of red cell fragments; - = incomplete lysis or presence of red cell fragments
Details: blood passed through reagent pad saturated with detergent solution
Experimental: Centered polyethylene reagent pads were saturated with a detergent solution, and the ability of the pad to provide completely lysed blood not containing any red cell fragments was analyzed. Since this sample is also used in the blood donor cartridge as described above to provide sample that is used in an agglutination reaction, inhibition of the agglutination reaction was also measured. Inhibition of agglutination was done subjectively, with 0 indicating little or no inhibition of agglutination and 5 representing the maximum amount of inhibition (essentially no agglutination under normal agglutinating conditions).
Other combinations of detergents can be determined in the same manner by measuring both red cell lysis and inhibition of agglutination and selecting a combination of detergents that provides the desired complete lysis with a minimum of inhibition.

Q: For mellitin, which “Red Cell Fragments” value (+ = absence of fragments) is on record?
A: Its value is “-”.

Q: What about the “Incomplete RBC lysis” value (+ = complete lysis) of the same substance?
A: Its value is “+”.
